Assay results from PubChem BioAssay (NCI).
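Protocol summary: plate cells (96-well), add compound at 5 concentrations, incubate 48 h, interpolate endpoints linearly. TGI denotes the concentration required for complete inhibition of growth.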

Tests used:
Assay in all cases: NCI-60 cell line screen, 48 h
BT-549 breast = system: BT-549 breast
SK-MEL-2 melanoma = system: SK-MEL-2 melanoma
HT29 colon = system: HT29 colon
A498 renal = system: A498 renal
CAKI-1 renal = system: CAKI-1 renal
HCT-15 colon = system: HCT-15 colon
NCI-H23 lung = system: NCI-H23 lung
KM12 colon = system: KM12 colon
OVCAR-4 ovarian = system: OVCAR-4 ovarian
OVCAR-8 ovarian = system: OVCAR-8 ovarian
MCF7 breast = system: MCF7 breast
SF-539 CNS = system: SF-539 CNS
CCRF-CEM leukemia = system: CCRF-CEM leukemia
HOP-62 NSCLC = system: HOP-62 NSCLC
HCC-2998 colon = system: HCC-2998 colon
U251 CNS = system: U251 CNS
SNB-75 CNS = system: SNB-75 CNS
TK-10 renal = system: TK-10 renal
OVCAR-3 ovarian = system: OVCAR-3 ovarian
UACC-62 melanoma = system: UACC-62 melanoma
SN12C renal = system: SN12C renal
PC-3 prostate = system: PC-3 prostate
SF-295 CNS = system: SF-295 CNS
HOP-92 NSCLC = system: HOP-92 NSCLC
IGROV1 ovarian = system: IGROV1 ovarian
HCT-116 colon = system: HCT-116 colon
MDA-MB-435 = system: MDA-MB-435
SK-MEL-28 melanoma = system: SK-MEL-28 melanoma
UACC-257 melanoma = system: UACC-257 melanoma
786-0 renal = system: 786-0 renal
SNB-19 CNS = system: SNB-19 CNS
SF-268 CNS = system: SF-268 CNS
SK-OV-3 ovarian = system: SK-OV-3 ovarian
MOLT-4 leukemia = system: MOLT-4 leukemia
EKVX NSCLC = system: EKVX NSCLC
RPMI-8226 leukemia = system: RPMI-8226 leukemia
COLO 205 colon = system: COLO 205 colon
DU-145 prostate = system: DU-145 prostate
NCI/ADR-RES ovarian = system: NCI/ADR-RES ovarian
MDA-MB-231 breast = system: MDA-MB-231 breast
MDA-N = system: MDA-N
UO-31 renal = system: UO-31 renal
LOX IMVI melanoma = system: LOX IMVI melanoma
HS 578T breast = system: HS 578T breast
NCI-H460 lung = system: NCI-H460 lung
OVCAR-5 ovarian = system: OVCAR-5 ovarian
MALME-3M melanoma = system: MALME-3M melanoma
M14 melanoma = system: M14 melanoma
A549 NSCLC = system: A549 NSCLC
SK-MEL-5 melanoma = system: SK-MEL-5 melanoma
NCI-H522 lung = system: NCI-H522 lung
NCI-H226 lung = system: NCI-H226 lung
SW-620 colon = system: SW-620 colon
RXF 393 renal = system: RXF 393 renal
T-47D breast = system: T-47D breast
ACHN renal = system: ACHN renal
HL-60(TB) leukemia = system: HL-60(TB) leukemia
K-562 leukemia = system: K-562 leukemia

Fc1ccc(C(OCCN2CCC3CCC(C2)N3C/C=C/c2cccnc2)c2ccc(F)cc2)cc1 (configuration not stated) gave a TGI (BT-549 breast) of 26.4 µM, a TGI (SK-MEL-2 melanoma) of 26.5 µM and a TGI (HT29 colon) of 14.6 µM. For the same compound, the TGI (A498 renal) was 28 µM, the TGI (CAKI-1 renal) was 26.1 µM and the TGI (HCT-15 colon) was 21.6 µM. It also gave a TGI (NCI-H23 lung) of 26.5 µM, a TGI (KM12 colon) of 26.3 µM and a TGI (OVCAR-4 ovarian) of 30.2 µM. For the same compound, the TGI (OVCAR-8 ovarian) was 25.9 µM, the TGI (MCF7 breast) was 25.5 µM and the TGI (SF-539 CNS) was 25.2 µM. The TGI (CCRF-CEM leukemia) was 17.5 µM, the TGI (HOP-62 NSCLC) was 31 µM and the TGI (HCC-2998 colon) was 15.6 µM. It also gave a TGI (U251 CNS) of 24.4 µM, a TGI (SNB-75 CNS) of 27.9 µM and a TGI (TK-10 renal) of 24 µM. It also gave a TGI (OVCAR-3 ovarian) of 29.5 µM, a TGI (UACC-62 melanoma) of 25 µM and a TGI (SN12C renal) of 26.2 µM. For the same compound, the TGI (PC-3 prostate) was 21.8 µM, the TGI (SF-295 CNS) was 22.2 µM and the TGI (HOP-92 NSCLC) was 27 µM. It also gave a TGI (IGROV1 ovarian) of 27.1 µM, a TGI (HCT-116 colon) of 19 µM and a TGI (MDA-MB-435) of 24.3 µM. The TGI (SK-MEL-28 melanoma) was 5.38 µM, the TGI (UACC-257 melanoma) was 12.3 µM and the TGI (786-0 renal) was 17.8 µM. For the same compound, the TGI (SNB-19 CNS) was 29.6 µM, the TGI (SF-268 CNS) was 26.2 µM and the TGI (SK-OV-3 ovarian) was 29.3 µM. For the same compound, the TGI (MOLT-4 leukemia) was 14.9 µM, the TGI (EKVX NSCLC) was 25 µM and the TGI (RPMI-8226 leukemia) was 5.8 µM. The TGI (COLO 205 colon) was 2.68 µM, the TGI (DU-145 prostate) was 33.1 µM and the TGI (NCI/ADR-RES ovarian) was 25.7 µM. The TGI (MDA-MB-231 breast) was 26.6 µM, the TGI (MDA-N) was 23.8 µM and the TGI (UO-31 renal) was 6.09 µM. It also gave a TGI (LOX IMVI melanoma) of 27 µM, a TGI (HS 578T breast) of 31.7 µM and a TGI (NCI-H460 lung) of 30.6 µM. It also gave a TGI (OVCAR-5 ovarian) of 26.8 µM, a TGI (MALME-3M melanoma) of 15 µM and a TGI (M14 melanoma) of 7.09 µM. It also gave a TGI (A549 NSCLC) of 25.4 µM, a TGI (SK-MEL-5 melanoma) of 14.9 µM and a TGI (NCI-H522 lung) of 27 µM. The TGI (NCI-H226 lung) was 30.3 µM, the TGI (SW-620 colon) was 23.1 µM and the TGI (RXF 393 renal) was 19.4 µM. The TGI (T-47D breast) was 31 µM and the TGI (ACHN renal) was 27.3 µM.
In the case of Cc1ccc(S(=O)(=O)NC(=O)NCC(=O)O)cc1, the TGI (BT-549 breast) is reported as greater than 100 µM, the TGI (SK-MEL-2 melanoma) is reported as greater than 100 µM and the TGI (HT29 colon) is reported as greater than 100 µM. For the same compound, the TGI (HCT-15 colon) was greater than 100 µM, the TGI (NCI-H23 lung) was greater than 100 µM and the TGI (KM12 colon) was greater than 100 µM. For the same compound, the TGI (OVCAR-4 ovarian) was greater than 100 µM, the TGI (OVCAR-8 ovarian) was greater than 100 µM and the TGI (MCF7 breast) was greater than 100 µM. The TGI (SF-539 CNS) was greater than 100 µM, the TGI (CCRF-CEM leukemia) was greater than 100 µM and the TGI (HOP-62 NSCLC) was greater than 100 µM. For the same compound, the TGI (HL-60(TB) leukemia) was greater than 100 µM, the TGI (U251 CNS) was greater than 100 µM and the TGI (SNB-75 CNS) was greater than 100 µM. It also gave a TGI (TK-10 renal) greater than 100 µM, a TGI (UACC-62 melanoma) greater than 100 µM and a TGI (SN12C renal) greater than 100 µM. For the same compound, the TGI (PC-3 prostate) was greater than 100 µM, the TGI (SF-295 CNS) was greater than 100 µM and the TGI (HOP-92 NSCLC) was greater than 100 µM. For the same compound, the TGI (IGROV1 ovarian) was greater than 100 µM, the TGI (HCT-116 colon) was greater than 100 µM and the TGI (SK-MEL-28 melanoma) was greater than 100 µM. The TGI (UACC-257 melanoma) was greater than 100 µM, the TGI (786-0 renal) was greater than 100 µM and the TGI (SNB-19 CNS) was greater than 100 µM. For the same compound, the TGI (SF-268 CNS) was greater than 100 µM, the TGI (SK-OV-3 ovarian) was greater than 100 µM and the TGI (MOLT-4 leukemia) was greater than 100 µM. The TGI (RPMI-8226 leukemia) was greater than 100 µM, the TGI (COLO 205 colon) was greater than 100 µM and the TGI (K-562 leukemia) was greater than 100 µM. The TGI (DU-145 prostate) was greater than 100 µM, the TGI (NCI/ADR-RES ovarian) was greater than 100 µM and the TGI (MDA-MB-231 breast) was greater than 100 µM. It also gave a TGI (MDA-N) greater than 100 µM, a TGI (UO-31 renal) greater than 100 µM and a TGI (LOX IMVI melanoma) greater than 100 µM. It also gave a TGI (HS 578T breast) greater than 100 µM, a TGI (NCI-H460 lung) greater than 100 µM and a TGI (OVCAR-5 ovarian) greater than 100 µM. For the same compound, the TGI (MALME-3M melanoma) was greater than 100 µM, the TGI (M14 melanoma) was greater than 100 µM and the TGI (A549 NSCLC) was greater than 100 µM. The TGI (SK-MEL-5 melanoma) was greater than 100 µM, the TGI (NCI-H522 lung) was greater than 100 µM and the TGI (SW-620 colon) was greater than 100 µM. It also gave a TGI (RXF 393 renal) greater than 100 µM, a TGI (T-47D breast) greater than 100 µM and a TGI (ACHN renal) greater than 100 µM.
